Results from PubChem BioAssay AID288 (DTP/NCI, 2004).
Results filed as inconclusive are left out. Numbered stars: 1 amine (or outer) side, 2 acyl side, 3 side chain; on linkers, the order of the positions; unused ones are H or OH. Bridge positions count the residues as written; N and C are the ends. Square brackets hold non-standard residues; d marks the D form. Peptide text beside a SMILES is read from it. I, II: the chains in the order shown. Actinocin(9to1) = Cc1c2oc3c(C)ccc(C(=O)[*:1])c3nc-2c(C(=O)[*:2])c(N)c1=O; aThr = C[C@H](O)[C@H](N)C(=O)O; NMeV = CN[C@H](C(=O)O)C(C)C; Sar = CNCC(=O)O

System: BDF1 mice, M5076 sarcoma s.c., survival/tumor T/C
Test: NCI In Vivo Anticancer Drug Screen. Data for tumor model Sarcoma M5076 (subcutaneous) in B6D2F1 (BDF1) mice
Experimental: The antitumor activity of compounds was measured in mice bearing transplantable tumors. Survival or tumor size were measured and the results are expressed as the measurement made in the treated group (T) divided by the measurement made in the vehicle treated control group (C). The tumor model used in this assay is Sarcoma M5076 (subcutaneous) in B6D2F1 (BDF1) mice

[1] = endpoint: median survival time, dose: 50.0 mg/kg/injection, schedule: Q01DX009 (ip), vehicle: saline with Tween-80, higher = longer survival
[2] = endpoint: median tumor weight (est.), dose: 50.0 mg/kg/injection, schedule: Q01DX009 (ip), vehicle: saline with Tween-80, higher = larger tumour
[3] = endpoint: median survival time, dose: 100.0 mg/kg/injection, schedule: Q01DX009 (ip), vehicle: saline with Tween-80, higher = longer survival
[4] = endpoint: median survival time, dose: 200.0 mg/kg/injection, schedule: Q01DX009 (ip), vehicle: saline with Tween-80, higher = longer survival
[5] = endpoint: median tumor weight (est.), dose: 100.0 mg/kg/injection, schedule: Q01DX009 (ip), vehicle: saline with Tween-80, higher = larger tumour
[6] = endpoint: median tumor weight (est.), dose: 200.0 mg/kg/injection, schedule: Q01DX009 (ip), vehicle: saline with Tween-80, higher = larger tumour

For `Cc1c2oc3c(C)ccc(C(=O)N[C@@H]4C(=O)N[C@H](C(C)C)C(=O)N5CCC[C@H]5C(=O)N(C)CC(=O)N(C)[C@@H](C(C)C)C(=O)O[C@H]4C)c3nc-2c(C(=O)N[C@@H]2C(=O)N[C@H](C(C)C)C(=O)N3CCC[C@H]3C(=O)N(C)CC(=O)N(C)[C@@H](C(C)C)C(=O)O[C@H]2C)c(N)c1=O` (I: [aThr][dV]P[Sar][NMeV] / II: [aThr][dV]P[Sar][NMeV]; ester I:1-I:C, II:1-II:C; linker I:N-II:N via Actinocin(9to1)), the T/C (endpoint: median survival time, dose: 0.01 mg/kg/injection, schedule: Q04DX006 (ip), vehicle: saline, higher = longer survival) was 102 % of control, the T/C (endpoint: median survival time, dose: 0.03 mg/kg/injection, schedule: Q04DX006 (ip), vehicle: saline, higher = longer survival) was 95 % of control and the T/C (endpoint: median survival time, dose: 0.06 mg/kg/injection, schedule: Q04DX006 (ip), vehicle: saline, higher = longer survival) was 102 % of control. For the same molecule, the T/C (endpoint: median survival time, dose: 0.12 mg/kg/injection, schedule: Q04DX006 (ip), vehicle: saline, higher = longer survival) was 102 % of control, the T/C (endpoint: median tumor weight (est.), dose: 4.7 micrograms/kg/injection, schedule: Q02DX011 (ip), vehicle: saline, higher = larger tumour) was 78 % of control and the T/C (endpoint: median tumor weight (est.), dose: 7.8 micrograms/kg/injection, schedule: Q02DX011 (ip), vehicle: saline, higher = larger tumour) was 109 % of control. The T/C (endpoint: median tumor weight (est.), dose: 13.0 micrograms/kg/injection, schedule: Q02DX011 (ip), vehicle: saline, higher = larger tumour) was 66 % of control, the T/C (endpoint: median tumor weight (est.), dose: 21.6 micrograms/kg/injection, schedule: Q02DX011 (ip), vehicle: saline, higher = larger tumour) was 83 % of control and the T/C (endpoint: median tumor weight (est.), dose: 36.0 micrograms/kg/injection, schedule: Q02DX011 (ip), vehicle: saline, higher = larger tumour) was 59 % of control. The T/C (endpoint: median tumor weight (est.), dose: 60.0 micrograms/kg/injection, schedule: Q02DX011 (ip), vehicle: saline, higher = larger tumour) was 78 % of control and the T/C (endpoint: median tumor weight (est.), dose: 100.0 micrograms/kg/injection, schedule: Q02DX011 (ip), vehicle: saline, higher = larger tumour) was 51 % of control.

With `O=C1CC(Cl)(CS(F)(F)(F)(F)F)O1` (stereo unspecified) the T/C [1] was 100 % of control and the T/C [2] was 56 % of control.

`CC1(C)COCN1COCCOCN1COCC1(C)C` was tested, and the T/C (endpoint: median survival time, dose: 50.0 mg/kg/injection, schedule: Q04DX003 (ip), vehicle: saline, higher = longer survival) was 103 % of control and the T/C (endpoint: median survival time, dose: 100.0 mg/kg/injection, schedule: Q04DX003 (ip), vehicle: saline, higher = longer survival) was 95 % of control.

With `O=c1[nH]cc(F)c(=O)[nH]1` the T/C (endpoint: median survival time, dose: 6.25 mg/kg/injection, schedule: Q04DX006 (ip), vehicle: saline, higher = longer survival) was 105 % of control, the T/C (endpoint: median survival time, dose: 12.5 mg/kg/injection, schedule: Q02DX033 (ip), vehicle: saline, higher = longer survival) was 101 % of control and the T/C (endpoint: median survival time, dose: 12.5 mg/kg/injection, schedule: Q04DX006 (ip), vehicle: saline, higher = longer survival) was 100 % of control. The T/C (endpoint: median survival time, dose: 25.0 mg/kg/injection, schedule: Q02DX033 (ip), vehicle: saline, higher = longer survival) was 105 % of control, the T/C (endpoint: median survival time, dose: 25.0 mg/kg/injection, schedule: Q04DX006 (ip), vehicle: saline, higher = longer survival) was 108 % of control and the T/C (endpoint: median survival time, dose: 50.0 mg/kg/injection, schedule: Q04DX006 (ip), vehicle: saline, higher = longer survival) was 105 % of control.

In the case of `C1CN(P2(N3CC3)=NP(N3CC3)(N3CC3)=NP(N3CC3)(N3CC3)=N2)CCO1` (stereo unspecified), the T/C (endpoint: median survival time, dose: 6.25 mg/kg/injection, schedule: Q02DX011 (ip), vehicle: saline, higher = longer survival) is reported as 99 % of control, the T/C (endpoint: median survival time, dose: 12.5 mg/kg/injection, schedule: Q02DX011 (ip), vehicle: saline, higher = longer survival) is reported as 105 % of control and the T/C (endpoint: median survival time, dose: 25.0 mg/kg/injection, schedule: Q02DX011 (ip), vehicle: saline, higher = longer survival) is reported as 122 % of control. For the same molecule, the T/C (endpoint: median survival time, dose: 50.0 mg/kg/injection, schedule: Q02DX011 (ip), vehicle: saline, higher = longer survival) was 89 % of control.

With `O=C1Nc2cnc(Cl)nc2Nc2ccccc21` the T/C [1] was 97 % of control, the T/C [3] was 94 % of control and the T/C [4] was 95 % of control. The T/C [2] was 90 % of control, the T/C [5] was 75 % of control and the T/C [6] was 86 % of control.

For `c1cc2n(n1)CCN2`, the T/C (endpoint: mean tumor weight, dose: 6.25 mg/kg/injection, schedule: Q02DX011 (ip), vehicle: saline, higher = larger tumour) was 122 % of control, the T/C (endpoint: mean tumor weight, dose: 12.5 mg/kg/injection, schedule: Q02DX011 (ip), vehicle: saline, higher = larger tumour) was 85 % of control and the T/C (endpoint: mean tumor weight, dose: 25.0 mg/kg/injection, schedule: Q02DX011 (ip), vehicle: saline, higher = larger tumour) was 103 % of control. The T/C (endpoint: median tumor weight (est.), dose: 6.25 mg/kg/injection, schedule: Q02DX011 (ip), vehicle: saline, higher = larger tumour) was 161 % of control.

In the case of `CC1(C)OC(C)(C)c2c1nnc(-c1cccc([N+](=O)[O-])c1)[n+]2[O-]`, the T/C [1] is reported as 110 % of control, the T/C [3] is reported as 113 % of control and the T/C [4] is reported as 113 % of control. The T/C [2] was 91 % of control, the T/C [5] was 119 % of control and the T/C [6] was 97 % of control.
